According to PubChem BioAssay (NCI):
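Step 1: Grow cells in 96-well plates. Step 2: Expose to compound for 48 hours at 5 concentrations. Step 3: Interpolate endpoints linearly; if unreached, use highest concentration. At the GI50, growth is halved. TGI: total growth inhibition.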

Legend:
Test in all cases: NCI-60 cell line screen, 48 h
[1] = system: EKVX NSCLC
[2] = system: RPMI-8226 leukemia
[3] = system: ACHN renal
[4] = system: DLD-1 colon
[5] = system: HCT-116 colon
[6] = system: SNB-75 CNS
[7] = system: A549 NSCLC
[8] = system: CAKI-1 renal
[9] = system: CCRF-CEM leukemia
[10] = system: HOP-62 NSCLC
[11] = system: KM20L2 colon
[12] = system: 786-0 renal
[13] = system: OVCAR-8 ovarian
[14] = system: HL-60(TB) leukemia
[15] = system: NCI-H226 lung
[16] = system: COLO 205 colon
[17] = system: M19-MEL melanoma
[18] = system: NCI-H23 lung
[19] = system: M14 melanoma
[20] = system: XF 498 CNS
[21] = system: DMS 114 small cell lung
[22] = system: OVCAR-3 ovarian
[23] = system: HCC-2998 colon
[24] = system: UACC-62 melanoma
[25] = system: HT29 colon
[26] = system: SF-539 CNS
[27] = system: HOP-92 NSCLC
[28] = system: SK-OV-3 ovarian
[29] = system: MOLT-4 leukemia
[30] = system: SW-620 colon
[31] = system: UACC-257 melanoma
[32] = system: LOX IMVI melanoma
[33] = system: OVCAR-5 ovarian
[34] = system: UO-31 renal
[35] = system: KM12 colon
[36] = system: SF-268 CNS
[37] = system: SN12C renal
[38] = system: SNB-19 CNS
[39] = system: DMS 273 small cell lung
[40] = system: MALME-3M melanoma
[41] = system: K-562 leukemia
[42] = system: RXF 393 renal
[43] = system: SK-MEL-5 melanoma
[44] = system: SR leukemia
[45] = system: SK-MEL-28 melanoma
[46] = system: HCT-15 colon
[47] = system: IGROV1 ovarian
[48] = system: SK-MEL-2 melanoma
[49] = system: TK-10 renal
[50] = system: NCI-H460 lung
[51] = system: NCI-H522 lung
[52] = system: U251 CNS
[53] = system: LXFL 529 NSCLC
[54] = system: HOP-18 NSCLC
[55] = system: OVCAR-4 ovarian
[56] = system: SF-295 CNS
[57] = system: SNB-78 CNS
[58] = system: A498 renal

O=c1[nH]c2c(nc1NC13CC4CC(CC(C4)C1)C3)c(=O)oc1ccccc12
TGI [1]: > 100 µM | TGI [2]: > 100 µM | TGI [3]: > 100 µM | TGI [4]: > 100 µM | TGI [5]: > 100 µM | TGI [6]: > 100 µM | TGI [7]: > 100 µM | TGI [8]: 46 µM | TGI [9]: > 100 µM | TGI [10]: > 100 µM | TGI [11]: > 100 µM | TGI [12]: > 100 µM | TGI [13]: > 100 µM | TGI [14]: > 100 µM | TGI [15]: 85.6 µM | TGI [16]: > 100 µM | TGI [17]: > 100 µM | TGI [18]: > 100 µM | TGI [19]: > 100 µM | TGI [20]: > 100 µM | TGI [21]: > 100 µM | TGI [22]: > 100 µM | TGI [23]: > 100 µM | TGI [24]: > 100 µM | TGI [25]: > 100 µM | TGI [26]: 35.8 µM | TGI [27]: > 100 µM | TGI [28]: > 100 µM | TGI [29]: > 100 µM | TGI [30]: > 100 µM | TGI [31]: > 100 µM | TGI [32]: > 100 µM | TGI [33]: > 100 µM | TGI [34]: > 100 µM | TGI [35]: > 100 µM | TGI [36]: > 100 µM | TGI [37]: > 100 µM | TGI [38]: > 100 µM | TGI [39]: > 100 µM | TGI [40]: > 100 µM | TGI [41]: > 100 µM | TGI [42]: > 100 µM | TGI [43]: > 100 µM | TGI [44]: > 100 µM | TGI [45]: > 100 µM | TGI [46]: > 100 µM | TGI [47]: > 100 µM | TGI [48]: > 100 µM | TGI [49]: > 100 µM | TGI [50]: > 100 µM | TGI [51]: > 100 µM | TGI [52]: 33.1 µM | TGI [53]: > 100 µM

CN(C)c1nc2ccccc2[nH]1
TGI [1]: > 100 µM | TGI [2]: > 100 µM | TGI [3]: > 100 µM | TGI [4]: > 100 µM | TGI [6]: > 100 µM | TGI [7]: > 100 µM | TGI [8]: > 100 µM | TGI [9]: > 100 µM | TGI [54]: > 100 µM | TGI [10]: > 100 µM | TGI [11]: > 100 µM | TGI [12]: > 100 µM | TGI [13]: > 100 µM | TGI [14]: > 100 µM | TGI [16]: > 100 µM | TGI [17]: > 100 µM | TGI [18]: > 100 µM | TGI [19]: > 100 µM | TGI [21]: > 100 µM | TGI [22]: > 100 µM | TGI [23]: > 100 µM | TGI [24]: > 100 µM | TGI [25]: > 100 µM | TGI [26]: > 100 µM | TGI [27]: > 100 µM | TGI [28]: > 100 µM | TGI [29]: > 100 µM | TGI [30]: > 100 µM | TGI [31]: > 100 µM | TGI [32]: > 100 µM | TGI [33]: > 100 µM | TGI [34]: > 100 µM | TGI [55]: > 100 µM | TGI [35]: > 100 µM | TGI [56]: > 100 µM | TGI [36]: > 100 µM | TGI [37]: > 100 µM | TGI [39]: > 100 µM | TGI [40]: > 100 µM | TGI [41]: > 100 µM | TGI [42]: > 100 µM | TGI [43]: > 100 µM | TGI [45]: > 100 µM | TGI [46]: > 100 µM | TGI [47]: > 100 µM | TGI [48]: > 100 µM | TGI [49]: > 100 µM | TGI [50]: > 100 µM | TGI [51]: > 100 µM | TGI [52]: > 100 µM | TGI [53]: > 100 µM

CCC[CH2][Sn]1([CH2]CCC)[O]N=C(c2ccccc2)C(c2ccccc2)[O]1 (centres undefined)
GI50 [1]: 1.16 µM | TGI [1]: 3.01 µM | GI50 [2]: 0.588 µM | TGI [2]: 4.38 µM | GI50 [3]: 1.72 µM | TGI [3]: 3.1 µM | GI50 [4]: 1.79 µM | TGI [4]: 3.58 µM | GI50 [5]: 1.67 µM | TGI [5]: 3.35 µM | GI50 [6]: 1.6 µM | TGI [6]: 4.1 µM | GI50 [7]: 10.5 µM | TGI [7]: 22.3 µM | GI50 [8]: 0.97 µM | TGI [8]: 2.4 µM | GI50 [9]: 0.29 µM | TGI [9]: 2.42 µM | GI50 [10]: 3.24 µM | TGI [10]: 7.93 µM | GI50 [11]: 2.54 µM | TGI [11]: 8.74 µM | GI50 [12]: 1.45 µM | TGI [12]: 2.83 µM | GI50 [13]: 1.87 µM | TGI [13]: 3.96 µM | GI50 [14]: 0.263 µM | TGI [14]: 1.42 µM | GI50 [15]: 2.09 µM | TGI [15]: 5.59 µM | GI50 [16]: 1.53 µM | TGI [16]: 2.92 µM | GI50 [17]: 1.56 µM | TGI [17]: 3.13 µM | GI50 [57]: 3.07 µM | TGI [57]: 8.01 µM | GI50 [18]: 1.28 µM | TGI [18]: 2.64 µM | GI50 [19]: 1.63 µM | TGI [19]: 3.09 µM | GI50 [21]: 0.965 µM | TGI [21]: 2.18 µM | GI50 [22]: 1.42 µM | TGI [22]: 2.84 µM | GI50 [23]: 2.18 µM | TGI [23]: 4.47 µM | GI50 [24]: 1.42 µM | TGI [24]: 2.81 µM | GI50 [25]: 2.46 µM | TGI [25]: 5.4 µM | GI50 [26]: 1.79 µM | TGI [26]: 3.39 µM | GI50 [27]: 1.54 µM | TGI [27]: 2.96 µM | GI50 [28]: 3.84 µM | TGI [28]: 12.7 µM | GI50 [29]: 1.81 µM | TGI [29]: 6.52 µM | GI50 [30]: 0.989 µM | TGI [30]: 2.27 µM | GI50 [31]: 2.02 µM | TGI [31]: 4.51 µM | GI50 [32]: 1.38 µM | TGI [32]: 2.86 µM | GI50 [33]: 2.84 µM | TGI [33]: 9.31 µM | GI50 [34]: 1.68 µM | TGI [34]: 3.46 µM | GI50 [55]: 2.13 µM | TGI [55]: 4.18 µM | GI50 [35]: 3.49 µM | TGI [35]: 14.1 µM | GI50 [56]: 1.73 µM | TGI [56]: 3.41 µM | GI50 [37]: 1.77 µM | TGI [37]: 3.18 µM | GI50 [38]: 2.14 µM | TGI [38]: 5.04 µM | GI50 [39]: 1.59 µM | TGI [39]: 3.05 µM | GI50 [40]: 1.13 µM | TGI [40]: 2.49 µM | GI50 [41]: 0.387 µM | TGI [41]: 2.38 µM | GI50 [42]: 1.5 µM | TGI [42]: 2.87 µM | GI50 [43]: 1.62 µM | TGI [43]: 3.23 µM | GI50 [44]: 0.574 µM | TGI [44]: 3.59 µM | GI50 [45]: 1.36 µM | TGI [45]: 2.64 µM | GI50 [46]: 1.46 µM | TGI [46]: 2.77 µM | GI50 [47]: 1.89 µM | TGI [47]: 3.9 µM | GI50 [48]: 1.27 µM | TGI [48]: 2.53 µM | GI50 [49]: 1.9 µM | TGI [49]: 4.09 µM | GI50 [50]: 4.46 µM | TGI [50]: 15.8 µM | GI50 [51]: 0.362 µM | TGI [51]: 1.47 µM | GI50 [58]: 2.59 µM | TGI [58]: 4.82 µM | GI50 [52]: 1.54 µM | TGI [52]: 2.9 µM | GI50 [53]: 0.316 µM | TGI [53]: 1.23 µM
